Reference: patent US8481738B2, “Gonadotropin-releasing hormone receptor antagonists and methods relating thereto” (Neurocrine Biosciences, Inc., priority 2007, dated 2013)

Each compound was assayed against T1, human GnRH receptor (Homo sapiens, UniProt P30968) (assay: Peptide competition radioligand binding displacement assay, human GnRH receptor membranes). Conditions: one or more of the peptide competition human receptor binding assays.
T1 construct: expressed in transfected cells; host or cells: RBL cells, stably transfected (in general)
T1 sequence (P30968 1-328): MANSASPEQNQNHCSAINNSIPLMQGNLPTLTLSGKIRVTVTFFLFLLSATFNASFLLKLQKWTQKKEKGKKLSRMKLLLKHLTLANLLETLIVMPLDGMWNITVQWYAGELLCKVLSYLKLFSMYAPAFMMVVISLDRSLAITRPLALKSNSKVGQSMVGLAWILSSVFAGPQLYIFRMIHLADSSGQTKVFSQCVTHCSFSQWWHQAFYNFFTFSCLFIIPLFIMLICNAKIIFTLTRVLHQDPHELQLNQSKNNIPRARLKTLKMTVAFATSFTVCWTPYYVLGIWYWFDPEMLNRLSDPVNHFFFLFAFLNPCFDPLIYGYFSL
Outline: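 Membranes for radioligand binding were prepared from RBL cells stably expressing human GnRH receptor, which were lysed by nitrogen cavitation at 900 psi, 4° C. Membranes from HEK293 cells stably transfected with human receptor were held in 10 mM HEPES pH 7.5, 150 mM NaCl, 0.1% BSA. Transiently transfected COS-7 cells were used for other species.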
`CN(C(=O)c1ccc(Cl)c(-c2nc3c(F)c(F)c(F)c(F)c3cc2C#N)c1)c1ccccc1OCCCC(=O)O` [33-3] showed a Ki of at most 100 nM.
Compound `COc1ccccc1N(C)C(=O)c1cc(-c2cnc(C(F)(F)F)cc2C#N)c(Cl)cc1OCCCC(=O)O` [34-1, 4-{5-chloro-4-(4-cyano-6-trifluoromethyl-pyridin-3-yl)-2-[(2-methoxy-phenyl)-methyl-carbamoyl]-phenoxy}-butyric acid] has a Ki of at most 100 nM.
In the case of `COc1cc(Cl)ccc1N(C)C(=O)c1cc(-c2cnc(C(F)(F)F)cc2C#N)c(Cl)cc1OCCCC(=O)O` [34-2], the Ki is reported as at most 100 nM.
With `CN(C(=O)c1cc(-c2cnc(C(F)(F)F)cc2C#N)c(Cl)cc1OCCCC(=O)O)c1ccccc1OC(F)(F)F` [34-3] the Ki was at most 100 nM.
In the case of `COc1cc(F)ccc1N(C)C(=O)c1cc(-c2cnc(C(F)(F)F)cc2C#N)c(Cl)cc1OCCCC(=O)O` [34-4], the Ki is reported as at most 100 nM.
With `COCc1ccccc1N(C)C(=O)c1cc(-c2cnc(C(F)(F)F)cc2C#N)c(Cl)cc1OCCCC(=O)O` [34-5] the Ki was at most 100 nM.
`COc1c(Cl)cccc1N(C)C(=O)c1cc(-c2cnc(C(F)(F)F)cc2C#N)c(Cl)cc1OCCCC(=O)O` [34-6] was tested, and the Ki was at most 100 nM.
Work on `COc1ccc(Cl)cc1N(C)C(=O)c1cc(-c2cnc(C(F)(F)F)cc2C#N)c(Cl)cc1OCCCC(=O)O` [34-7] yielded a Ki of at most 100 nM.
Work on `CN(C(=O)c1cc(-c2cnc(C(F)(F)F)cc2C#N)c(Cl)cc1OCCCC(=O)O)c1ccccc1` [34-8] yielded a Ki of at most 100 nM.
Compound `COCc1cc(Cl)ccc1N(C)C(=O)c1cc(-c2cnc(C(F)(F)F)cc2C#N)c(Cl)cc1OCCCC(=O)O` [34-9] has a Ki of at most 100 nM.
`COC(=O)c1ccccc1N(C)C(=O)c1cc(-c2cnc(C(F)(F)F)cc2C#N)c(Cl)cc1OCCCC(=O)O` [34-10] was tested, and the Ki was at most 100 nM.
Work on `COc1ccc(C)cc1N(C)C(=O)c1cc(-c2cnc(C(F)(F)F)cc2C#N)c(Cl)cc1OCCCC(=O)O` [34-12] yielded a Ki of at most 100 nM.
`COc1ccc(OC)c(N(C)C(=O)c2cc(-c3cnc(C(F)(F)F)cc3C#N)c(Cl)cc2OCCCC(=O)O)c1` [34-13] was tested, and the Ki was at most 100 nM.
In the case of `CN(C(=O)c1cc(-c2cnc(C(F)(F)F)cc2C#N)c(Cl)cc1OCCCC(=O)O)c1ccccc1-c1cnco1` [34-15], the Ki is reported as at most 100 nM.
`CN(C(=O)c1cc(-c2cnc(C(F)(F)F)cc2C#N)c(Cl)cc1OCCCC(=O)O)c1ccccc1-c1ccco1` [34-16] gave a Ki of at most 100 nM.
`CN(C(=O)c1cc(-c2cnc(C(F)(F)F)cc2C#N)c(Cl)cc1OCCCC(=O)O)c1ccccn1` [34-18] showed a Ki of at most 100 nM.
`COc1cccc(N(C)C(=O)c2cc(-c3cnc(C(F)(F)F)cc3C#N)c(Cl)cc2OCCCC(=O)O)n1` [34-19] showed a Ki of at most 100 nM.
With `Cc1cccnc1N(C)C(=O)c1cc(-c2cnc(C(F)(F)F)cc2C#N)c(Cl)cc1OCCCC(=O)O` [34-20] the Ki was at most 100 nM.
`CC(C)CCN(C)C(=O)c1cc(-c2cnc(C(F)(F)F)cc2C#N)c(Cl)cc1OCCCC(=O)O` [34-23] was tested, and the Ki was at most 100 nM.
In the case of `COCCN(C)C(=O)c1cc(-c2cnc(C(F)(F)F)cc2C#N)c(Cl)cc1OCCCC(=O)O` [34-24], the Ki is reported as at most 100 nM.
In the case of `CN(CC1CC1)C(=O)c1cc(-c2cnc(C(F)(F)F)cc2C#N)c(Cl)cc1OCCCC(=O)O` [34-25], the Ki is reported as at most 100 nM.
In the case of `COc1cccc(F)c1N(C)C(=O)c1cc(-c2cnc(C(F)(F)F)cc2C#N)c(Cl)cc1OCCCC(=O)O` [34-26], the Ki is reported as at most 100 nM.
For `COc1ccccc1N(C)C(=O)c1cc(-c2cnc(C(F)(F)F)cc2C#N)c(Cl)cc1OCCCc1nnn[nH]1` [35-1, 4-Chloro-5-(4-cyano-6-trifluoromethyl-pyridin-3-yl)-N-(2-methoxy-phenyl)-N-methyl-2-[3-(1H-tetrazol-5-yl)-propoxy]-benzamide], the Ki was at most 100 nM.
Compound `CN(C(=O)c1ccc(Cl)c(-c2cnc(C(F)(F)F)cc2C#N)c1)c1ccccc1OCCC(=O)OCOC(=O)C(C)(C)C` [36-1, 2,2-Dimethyl-propionic acid 3-(2-{[4-chloro-3-(4-cyano-6-trifluoromethyl-pyridin-3-yl)-benzoyl]-methyl-amino}-phenoxy)-propionyloxymethyl ester] has a Ki of at most 100 nM.
`COc1ccccc1N(C)C(=O)c1cc(-c2cnc(C(F)(F)F)cc2C#N)c(Cl)cc1OCCCC(=O)OCOC(=O)C(C)(C)C` [36-2, 4-{5-chloro-4-(4-cyano-6-trifluoromethyl-pyridin-3-yl)-2-[(2-methoxy-phenyl)-methyl-carbamoyl]-phenoxy}-butyric acid 2,2-dimethyl-propionyloxymethyl ester] showed a Ki of at most 100 nM.
Compound `CC(OC(=O)CCOc1ccccc1N(C)C(=O)c1ccc(Cl)c(-c2cnc(C(F)(F)F)cc2C#N)c1)OC(=O)OC1CCCCC1` (centres unmarked) [37-1, 3-(2-{[4-Chloro-3-(4-cyano-6-trifluoromethyl-pyridin-3-yl)-benzoyl]-methyl-amino}-phenoxy)-propionic acid 1-cyclohexyloxycarbonyloxy-ethyl ester] has a Ki of at most 100 nM.
Work on `CC(C)OC(=O)OC(C)OC(=O)CCOc1ccccc1N(C)C(=O)c1ccc(Cl)c(-c2cnc(C(F)(F)F)cc2C#N)c1` (centres unmarked) [37-2, 3-(2-{[4-Chloro-3-(4-cyano-6-trifluoromethyl-pyridin-3-yl)-benzoyl]-methyl-amino}-phenoxy)-propionic acid 1-isopropoxycarbonyloxy-ethyl ester] yielded a Ki of at most 100 nM.
In the case of `COc1ccccc1N(C)C(=O)c1cc(-c2cnc(C(F)(F)F)cc2C#N)c(Cl)cc1OCCCC(=O)OC(C)OC(=O)OC1CCCCC1` (centres unmarked) [37-3, 4-{5-chloro-4-(4-cyano-6-trifluoromethyl-pyridin-3-yl)-2-[(2-methoxy-phenyl)-methyl-carbamoyl]-phenoxy}-butyric acid 1-cyclohexyloxycarbonyloxy-ethyl ester], the Ki is reported as at most 100 nM.
`COc1ccccc1N(C)C(=O)c1cc(-c2cnc(C(F)(F)F)cc2C#N)c(Cl)cc1OCCCC(=O)OC(C)OC(=O)OC(C)C` (centres unmarked) [37-4, 4-{5-chloro-4-(4-cyano-6-trifluoromethyl-pyridin-3-yl)-2-[(2-methoxy-phenyl)-methyl-carbamoyl]-phenoxy}-butyric acid 1-isopropoxycarbonyloxy-ethyl ester] showed a Ki of at most 100 nM.
Work on `COc1cc(Cl)c(-c2cnc(C(F)(F)F)cc2C#N)cc1C(=O)N(C)c1ccccc1OC` [38-1, 4-Chloro-5-(4-cyano-6-trifluoromethyl-pyridin-3-yl)-2-methoxy-N-(2-methoxy-phenyl)-N-methyl-benzamide] yielded a Ki of at most 100 nM.
`COc1cc(Cl)c(-c2cnc(C(F)(F)F)cc2C#N)cc1C(=O)N(C)c1c(C)cccc1C` [39-1, 4-Chloro-5-(4-cyano-6-trifluoromethyl-pyridin-3-yl)-N-(2,6-dimethyl-phenyl)-2-methoxy-N-methyl-benzamide] gave a Ki of at most 100 nM.
Work on `COC(=O)c1ccccc1N(C)C(=O)c1cc(-c2cnc(C(F)(F)F)cc2C#N)c(Cl)cc1OC` [39-2] yielded a Ki of at most 100 nM.
Compound `COc1cc(Cl)c(-c2cnc(C(F)(F)F)cc2C#N)cc1C(=O)N(C)c1c(OC)cccc1OC` [39-3] has a Ki of at most 100 nM.
`COc1cc(Cl)c(-c2cnc(C(F)(F)F)cc2C#N)cc1C(=O)N(C)c1c(F)cccc1OC` [39-4] showed a Ki of at most 100 nM.
For `COc1cc(Cl)c(-c2cnc(C(F)(F)F)cc2C#N)cc1C(=O)N(C)c1cc(F)ccc1OC` [39-5], the Ki was at most 100 nM.
In the case of `COc1cc(Cl)c(-c2cnc(C(F)(F)F)cc2C#N)cc1C(=O)N(C)c1c(F)cccc1F` [39-6], the Ki is reported as at most 100 nM.
For `COc1cc(Cl)c(-c2cnc(C(F)(F)F)cc2C#N)cc1C(=O)N(C)c1ccccc1` [39-7], the Ki was at most 100 nM.
`COC(=O)c1ccc(Cl)cc1N(C)C(=O)c1cc(-c2cnc(C(F)(F)F)cc2C#N)c(Cl)cc1OC` [39-8] showed a Ki of at most 100 nM.
`COc1cc(Cl)c(-c2cnc(C(F)(F)F)cc2C#N)cc1C(=O)N(C)c1ccccc1OCC(F)(F)F` [39-9] gave a Ki of at most 100 nM.
`COc1cc(Cl)c(-c2cnc(C(F)(F)F)cc2C#N)cc1C(=O)N(C)c1c(C)cccc1OC` [39-10] gave a Ki of at most 100 nM.
`COc1cc(Cl)c(-c2cnc(C(F)(F)F)cc2C#N)cc1C(=O)N(C)c1cc(F)ccc1C` [39-11] showed a Ki of at most 100 nM.
Compound `COc1cc(Cl)c(-c2cnc(C(F)(F)F)cc2C#N)cc1C(=O)N(C)c1ccccc1-c1cnco1` [39-12] has a Ki of at most 100 nM.
`COc1cc(Cl)c(-c2cnc(C(F)(F)F)cc2C#N)cc1C(=O)N(C)c1ncccc1OC` [39-13] showed a Ki of at most 100 nM.
`COc1cc(Cl)c(-c2cnc(C(F)(F)F)cc2C#N)cc1C(=O)N(C)c1ccccn1` [39-14] gave a Ki of at most 100 nM.
Work on `COc1cc(Cl)c(-c2cnc(C(F)(F)F)cc2C#N)cc1C(=O)N(C)Cc1ccccc1` [39-15] yielded a Ki of at most 100 nM.
`COc1cc(Cl)c(-c2cnc(C(F)(F)F)cc2C#N)cc1C(=O)N(C)Cc1ccccc1F` [39-16] showed a Ki of at most 100 nM.
`COc1ccccc1CN(C)C(=O)c1cc(-c2cnc(C(F)(F)F)cc2C#N)c(Cl)cc1OC` [39-17] gave a Ki of at most 100 nM.
Work on `COc1cccc(CN(C)C(=O)c2cc(-c3cnc(C(F)(F)F)cc3C#N)c(Cl)cc2OC)c1` [39-18] yielded a Ki of at most 100 nM.
Work on `COc1cc(Cl)c(-c2cnc(C(F)(F)F)cc2C#N)cc1C(=O)N(C)c1cnccc1OC` [39-20] yielded a Ki of at most 100 nM.
Compound `COc1cc(Cl)c(-c2cnc(C(F)(F)F)cc2C#N)cc1C(=O)N(C)c1ncccc1C` [39-21] has a Ki of at most 100 nM.
For `COc1cccc(N(C)C(=O)c2cc(-c3cnc(C(F)(F)F)cc3C#N)c(Cl)cc2OC)n1` [39-23], the Ki was at most 100 nM.
Compound `CN(C(=O)c1ccc(Cl)c(-c2cnc(C(F)(F)F)cc2C#N)c1)c1ccccc1OCCc1n[nH]c(=O)[nH]1` [40-1, 4-Chloro-3-(4-cyano-6-trifluoromethyl-pyridin-3-yl)-N-methyl-N-{2-[2-(5-oxo-4,5-dihydro-1H-[1,2,4]triazol-3-yl)-ethoxy]-phenyl}-benzamide] has a Ki of at most 100 nM.
With `CN(C(=O)c1ccc(Cl)c(-c2cnc(C(F)(F)F)cc2C#N)c1)c1ccccc1OCCNC(=O)NS(C)(=O)=O` [41-1, 4-Chloro-3-(4-cyano-6-trifluoromethyl-pyridin-3-yl)-N-{2-[2-(3-methylsulfonyl-ureido)-ethoxy]-phenyl}-N-methyl-benzamide] the Ki was at most 100 nM.
